These results are taken from PubChem BioAssay (NCI).

Structures are written as SMILES.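 Five compound concentrations were applied to cells in 96-well plates for 48 hours; endpoints were derived by simple linear interpolation of the resulting dose-response curve. The concentration for full growth arrest is given as TGI.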

Some test systems named below: MOLT-4 leukemia; UACC-62 melanoma; NCI-H460 lung; SN12C renal; A498 renal; RPMI-8226 leukemia; EKVX NSCLC; HCT-116 colon; NCI-H23 lung; U251 CNS; UO-31 renal; SF-295 CNS; SF-268 CNS; K-562 leukemia; MDA-MB-231 breast; SR leukemia; T-47D breast.
Holding throughout (test): NCI tumour cell line growth inhibition, 48 h

Take `Cc1ccccc1C1CC(=O)CC(c2ccccc2C)C12C(=O)NC(=O)NC2=O` (stereo not drawn): the TGI in the assay on MOLT-4 leukemia is over 100 µM; in the assay on UACC-62 melanoma, over 100 µM; in the assay on NCI-H460 lung it was over 100 µM; in the assay with SN12C renal, over 100 µM; in the assay on A498 renal, over 100 µM; in the assay with RPMI-8226 leukemia it was 97.4 µM. In addition, the TGI in the assay with EKVX NSCLC, in the assay on HCT-116 colon, with NCI-H23 lung, with U251 CNS, in the assay with UO-31 renal and with SF-295 CNS was over 100 µM each time. Moreover, the TGI in the assay on SF-268 CNS, in the assay with K-562 leukemia, in the assay with MDA-MB-231 breast, in the assay on SR leukemia and in the assay on T-47D breast was over 100 µM each time.

Turning to `CCCCON1C[C@@H](O)C(O)[C@@H](O)C1` (stereo partly drawn), the TGI with MOLT-4 leukemia, in the assay with UACC-62 melanoma, in the assay on NCI-H460 lung, in the assay with SN12C renal, in the assay with A498 renal and in the assay on RPMI-8226 leukemia was over 100 µM throughout. Besides, the TGI in the assay with EKVX NSCLC, with HCT-116 colon, in the assay on NCI-H23 lung, in the assay on U251 CNS, with UO-31 renal and in the assay on SF-295 CNS was over 100 µM each time. Also, the TGI with SF-268 CNS, in the assay on K-562 leukemia, in the assay on MDA-MB-231 breast, with SR leukemia and with T-47D breast was over 100 µM in each case.

`CN(NC(=O)c1ccco1)C1=NCCN1`: the TGI in the assay with MOLT-4 leukemia, in the assay on UACC-62 melanoma, with NCI-H460 lung, in the assay on SN12C renal, in the assay with A498 renal and in the assay on RPMI-8226 leukemia was over 100 µM each time. Moreover, the TGI with EKVX NSCLC, in the assay on HCT-116 colon, in the assay on NCI-H23 lung, in the assay with U251 CNS, in the assay on UO-31 renal and with SF-295 CNS was over 100 µM throughout. The TGI in the assay with SF-268 CNS, in the assay with K-562 leukemia, in the assay on MDA-MB-231 breast, in the assay with SR leukemia and in the assay on T-47D breast was over 100 µM throughout.

For `COc1cc2cc(C(=O)N3CC(CCl)c4c3cc([N+](=O)[O-])c3ccccc43)[nH]c2c(OC)c1OC` (stereo not drawn), the TGI in the assay with MOLT-4 leukemia was over 100 µM; with UACC-62 melanoma, over 100 µM; with NCI-H460 lung it was over 63.8 µM; in the assay with SN12C renal, over 100 µM; in the assay with A498 renal, 97.6 µM; in the assay on RPMI-8226 leukemia, over 100 µM. Besides, the TGI in the assay on EKVX NSCLC was over 100 µM; in the assay on HCT-116 colon it was over 100 µM; in the assay with NCI-H23 lung, over 100 µM; in the assay on U251 CNS, over 100 µM; in the assay with UO-31 renal, over 100 µM; with SF-295 CNS it was 97.7 µM. Besides, the TGI in the assay on SF-268 CNS was over 100 µM; with K-562 leukemia, over 100 µM; with MDA-MB-231 breast, over 100 µM; in the assay with SR leukemia it was 19.1 µM; in the assay on T-47D breast, over 100 µM.

Take `O=C1CCCCC/C1=C\c1ccc(F)cc1`: the TGI in the assay with MOLT-4 leukemia, with UACC-62 melanoma, in the assay on NCI-H460 lung, in the assay with SN12C renal, in the assay with A498 renal and with RPMI-8226 leukemia was over 100 µM in each case. In addition, the TGI in the assay on EKVX NSCLC, in the assay with HCT-116 colon, in the assay on NCI-H23 lung, in the assay with U251 CNS, with UO-31 renal and with SF-295 CNS was over 100 µM throughout. In addition, the TGI in the assay with SF-268 CNS, with K-562 leukemia, in the assay on MDA-MB-231 breast, in the assay on SR leukemia and with T-47D breast was over 100 µM in each case.

On to `CC(C)/C(Cl)=N\OC(=O)Nc1cccc(F)c1`, for which the TGI was 6.29 µM in the assay with MOLT-4 leukemia; 45.3 µM in the assay on UACC-62 melanoma; over 66.8 µM in the assay with NCI-H460 lung; 32.2 µM in the assay on SN12C renal; 17.9 µM in the assay on A498 renal; 15.3 µM in the assay with RPMI-8226 leukemia. Further, the TGI with EKVX NSCLC is 31.8 µM; with HCT-116 colon, 30.6 µM; in the assay with NCI-H23 lung, 34.2 µM; in the assay with U251 CNS, 33.4 µM; in the assay on UO-31 renal it was 32.6 µM; with SF-295 CNS it was over 53.9 µM. The TGI in the assay on SF-268 CNS came to 58 µM; with K-562 leukemia, 4.8 µM; in the assay with MDA-MB-231 breast, 31.4 µM; with SR leukemia, 6.6 µM; with T-47D breast, 61.6 µM.

Take `C#CCOC(=O)c1ccccc1O`: the TGI with MOLT-4 leukemia, with UACC-62 melanoma, with NCI-H460 lung, in the assay on SN12C renal, in the assay with A498 renal and with RPMI-8226 leukemia was over 100 µM throughout. The TGI in the assay with EKVX NSCLC, in the assay with HCT-116 colon, in the assay with NCI-H23 lung, with U251 CNS, in the assay on UO-31 renal and in the assay on SF-295 CNS was over 100 µM each time. Besides, the TGI with SF-268 CNS, with K-562 leukemia, with MDA-MB-231 breast, in the assay on SR leukemia and in the assay on T-47D breast was over 100 µM each time.

Turning to `COc1cc(N(CCC#N)CCC#N)ccc1/C=C1\SC(=S)NC1=O`, the TGI with MOLT-4 leukemia, with UACC-62 melanoma, in the assay on NCI-H460 lung, in the assay with SN12C renal, in the assay on A498 renal and with RPMI-8226 leukemia was over 100 µM throughout. In addition, the TGI in the assay on EKVX NSCLC, in the assay with HCT-116 colon, in the assay on NCI-H23 lung, in the assay on U251 CNS, in the assay with UO-31 renal and in the assay on SF-295 CNS was over 100 µM in each case. The TGI in the assay with SF-268 CNS, with K-562 leukemia, with MDA-MB-231 breast, in the assay on SR leukemia and in the assay on T-47D breast was over 100 µM throughout.

In the case of `O=C1/C(=C/c2cccnc2)C(n2cccc2)c2c(Br)sc(Br)c21` (stereo not drawn), the TGI in the assay with MOLT-4 leukemia is 5.34 µM; in the assay on UACC-62 melanoma, 4.49 µM; in the assay with NCI-H460 lung it was 18.9 µM; with SN12C renal, 14.2 µM; with A498 renal, 30.4 µM; in the assay with RPMI-8226 leukemia it was 4.94 µM. In addition, the TGI was 4.1 µM with EKVX NSCLC; 4.97 µM in the assay on HCT-116 colon; 9.18 µM in the assay on NCI-H23 lung; 3.08 µM with U251 CNS; 3.43 µM in the assay on UO-31 renal; 32 µM with SF-295 CNS. Besides, the TGI in the assay on SF-268 CNS amounted to 4.3 µM; in the assay with K-562 leukemia, 7.39 µM; in the assay with MDA-MB-231 breast, 3.3 µM; in the assay on SR leukemia, 6.37 µM; in the assay with T-47D breast, 6.25 µM.
